Assay results: patent US8071598B2, “3,9-diazabicyclo[3.3.1]nonane derivatives and their use as monoamine neurotransmitter re-uptake inhibitors” (Neurosearch A/S, priority 2006, dated 2011)
Where a name gives a salt, the structure may show the parent alone. Read-outs that look alike come from different tables or passages of the source.

Tests used:
[1] = molecular target: T1, reuptake of noradrenaline (NA) in synaptosomes (Rattus norvegicus, UniProt Q63380); test: Inhibition of noradrenaline (NA) reuptake in synaptosomes; assay type: biochemical
T1 construct: in synaptosomes as described in WO 97/16451; from tissue; host or cells: synaptosomes (brain tissue)
T1 sequence (Q63380 1-617): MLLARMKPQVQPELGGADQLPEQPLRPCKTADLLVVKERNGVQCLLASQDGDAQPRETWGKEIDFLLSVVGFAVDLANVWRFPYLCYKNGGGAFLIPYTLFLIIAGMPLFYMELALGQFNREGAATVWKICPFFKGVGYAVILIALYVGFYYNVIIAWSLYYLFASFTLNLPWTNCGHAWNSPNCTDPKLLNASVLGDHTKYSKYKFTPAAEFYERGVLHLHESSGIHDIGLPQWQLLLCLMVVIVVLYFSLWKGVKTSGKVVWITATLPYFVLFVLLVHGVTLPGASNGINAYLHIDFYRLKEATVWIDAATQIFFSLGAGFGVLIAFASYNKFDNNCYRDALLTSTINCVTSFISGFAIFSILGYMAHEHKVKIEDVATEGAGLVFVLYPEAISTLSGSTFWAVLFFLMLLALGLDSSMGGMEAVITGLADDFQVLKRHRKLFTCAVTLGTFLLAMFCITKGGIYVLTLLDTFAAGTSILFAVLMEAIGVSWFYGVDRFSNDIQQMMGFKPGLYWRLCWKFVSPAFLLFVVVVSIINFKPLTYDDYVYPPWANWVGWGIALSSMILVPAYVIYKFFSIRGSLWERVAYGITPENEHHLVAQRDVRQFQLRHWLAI

[2] = molecular target: T2, reuptake of dopamine (DA) in synaptosomes (Rattus norvegicus, UniProt P23977); test: Inhibition of dopamine (DA) reuptake in synaptosomes; assay type: biochemical
T2 construct: in synaptosomes as described in WO 97/16451; from tissue; host or cells: synaptosomes (brain tissue)
T2 sequence (P23977 whole entry): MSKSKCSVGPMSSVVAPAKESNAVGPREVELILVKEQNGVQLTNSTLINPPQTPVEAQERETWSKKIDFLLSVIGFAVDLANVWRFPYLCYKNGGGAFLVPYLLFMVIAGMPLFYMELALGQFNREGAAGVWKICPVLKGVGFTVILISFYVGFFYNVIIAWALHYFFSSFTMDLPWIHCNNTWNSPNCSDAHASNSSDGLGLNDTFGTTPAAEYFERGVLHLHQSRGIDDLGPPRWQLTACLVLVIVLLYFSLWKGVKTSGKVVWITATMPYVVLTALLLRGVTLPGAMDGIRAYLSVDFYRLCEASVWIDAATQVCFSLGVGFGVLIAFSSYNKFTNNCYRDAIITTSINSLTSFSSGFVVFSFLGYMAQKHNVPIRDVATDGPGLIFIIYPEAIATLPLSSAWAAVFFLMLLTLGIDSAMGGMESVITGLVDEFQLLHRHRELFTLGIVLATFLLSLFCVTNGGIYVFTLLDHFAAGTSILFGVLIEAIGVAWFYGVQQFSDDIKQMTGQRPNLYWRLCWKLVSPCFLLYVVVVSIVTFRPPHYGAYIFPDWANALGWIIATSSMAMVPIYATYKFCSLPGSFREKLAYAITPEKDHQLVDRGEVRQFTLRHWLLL

[3] = molecular target: T3, reuptake of serotonine (5-HT) in synaptosomes (Rattus norvegicus, UniProt P31652); test: Inhibition of serotonine (5-HT) reuptake in synaptosomes; assay type: biochemical
T3 construct: in synaptosomes as described in WO 97/16451; from tissue; host or cells: synaptosomes (brain tissue)
T3 sequence (P31652 whole entry): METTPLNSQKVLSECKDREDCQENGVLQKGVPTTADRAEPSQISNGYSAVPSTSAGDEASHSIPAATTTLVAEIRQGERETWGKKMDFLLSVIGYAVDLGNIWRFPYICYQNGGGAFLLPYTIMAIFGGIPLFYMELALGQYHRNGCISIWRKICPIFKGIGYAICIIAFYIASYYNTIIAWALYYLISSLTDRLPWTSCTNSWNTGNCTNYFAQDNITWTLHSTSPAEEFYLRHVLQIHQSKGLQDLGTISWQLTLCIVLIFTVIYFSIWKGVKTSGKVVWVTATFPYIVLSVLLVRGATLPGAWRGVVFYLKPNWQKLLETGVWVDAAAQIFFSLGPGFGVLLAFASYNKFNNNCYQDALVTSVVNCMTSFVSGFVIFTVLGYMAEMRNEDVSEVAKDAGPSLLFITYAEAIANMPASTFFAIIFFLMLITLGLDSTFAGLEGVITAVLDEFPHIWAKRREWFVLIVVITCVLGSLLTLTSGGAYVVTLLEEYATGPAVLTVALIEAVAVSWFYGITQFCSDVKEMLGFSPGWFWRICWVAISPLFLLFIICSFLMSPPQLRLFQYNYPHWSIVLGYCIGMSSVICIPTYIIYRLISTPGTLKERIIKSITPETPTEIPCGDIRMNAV
Protocol: A number of compounds were tested for their ability to inhibit the reuptake of the monoamine neurotransmitters dopamine (DA) noradrenaline (NA) and serotonine (5-HT) in synaptosomes as described in WO 97/16451.
The test values are given as IC50 (the concentration (μM) of the test substance which inhibits the specific binding of ^3H-DA, ^3H-NA, or ^3H-5-HT by 50%).

COc1ccc2cc(N3CC4CCCC(C3)N4C)ccc2c1 (as salt: fumaric acid salt) [1st compound of Method C, 3-(6-Methoxy-naphthalen-2-yl)-9-methyl-3,9-diaza-bicyclo[3.3.1]nonane]
melting point: 190 to 198.3 °C

Clc1ccc(N2CC3CCCC(C2)N3)cc1Cl (as salt: hydrochloric acid salt) [1st compound of Method B, 3-(3,4-Dichloro-phenyl)-3,9-diaza-bicyclo[3.3.1]nonane]
melting point: 295.4 °C

Clc1ccc(N2CC3CCCC(C2)N3)cc1Cl [1st compound of Method B, 3-(3,4-Dichloro-phenyl)-3,9-diaza-bicyclo[3.3.1]nonane]
IC50 [1]: 0.0074 µM
IC50 [2]: 0.16 µM
IC50 [3]: 0.00069 µM

COc1ccc2cc(N3CC4CCCC(C3)N4C)ccc2c1 [1st compound of Method C, 3-(6-Methoxy-naphthalen-2-yl)-9-methyl-3,9-diaza-bicyclo[3.3.1]nonane]
IC50 [1]: 0.019 µM
IC50 ([2]; synaptosomes, 3H-DA, read-out: DA-uptake IC50): 0.23 µM
IC50 [3]: 0.0081 µM

CN1C2CCCC1CN(c1ccc3cc(O)ccc3c1)C2 [3rd compound of Method C, 6-(9-Methyl-3,9-diaza-bicyclo[3.3.1]non-3-yl)-naphthalen-2-ol]
IC50 ([1]; synaptosomes, 3H-NA, read-out: NA-uptake IC50): 0.11 µM
IC50 [2]: 0.054 µM
IC50 [3]: 0.0079 µM
